The record followed here is patent publication EP4417607A1, “HETEROCYCLIC COMPOUND AS SOS1 INHIBITOR AND USES THEREOF” (Nanjing Zaiming Pharmaceutical Co., Ltd., priority 2021, dated 2023).

For one test, the system named is H358 cells. Put plainly: H358 cell proliferation inhibition (CellTiter-Glo luminescent cell viability assay). It counts as cell-based. To be noted: 7 days. The procedure: The effect of the compounds of the present invention on H358 cell proliferation was assessed by CellTiter-Glo luminescent cell viability assay kit method.
H358 cells (ATCC, CRL-5807) were cultured in RPMI1640 (Hyclone, SH30256.01) complete medium containing 10% FBS (Gibco, 10100147) and 100 U/mL penicillin-streptomycin mixed solution (Gibco, 15140163). When the cells grew to 80-90%, the cells were digested, pipetted, and seeded in a 96-well plate (Corning, 4515) at 3000 cells/well (180 µL RPMI1640 complete medium), and then the 96-well plate was incubated overnight in an incubator at 37 °C with 5% CO2.
After incubation overnight, 20 µL of a diluted test compound was added to each well using a multi-channel pipette, and the 96-well plate was placed in an incubator at 37 °C with 5% CO2 for further culture. After 7 days, 100 µL of the supernatant was pipetted and discarded. 50 µL of CellTiter-Glo® 3D Cell Viability Assay liquid was added to each well. The plate was shaken at room temperature at 450 rpm for 30 min. After the cells were completely lysed, "Luminescence" on the microplate reader was selected for plate reading. In this experiment, the cell-free group (replaced with 1640 medium) was used as the 100% inhibition group, and the compound-free group in which the cell was added was used as the 0% inhibition group.
The inhibition percentage of H358 cell proliferation by the compounds of the present invention could be calculated by the following formula: [formula]
(§1) IC50 values of the compounds were calculated from 8 concentration points using XLfit (ID Business Solutions Ltd., UK) software by the following formula: Y = Bottom + (Top−Bottom)/(1+10^(∧)((logIC50−X)×slopefactor)) [formula]
Y is the inhibition percentage, X is the logarithmic value of the concentration of the test compound, Bottom is the minimum inhibition percentage, Top is the maximum inhibition percentage, and slope factor is the slope coefficient of the curve.
Background: In ATP-based viability assays light output follows the ATP content of the culture.
For the molecule “(R)-4-((1-(3-(difluoromethyl)-2-fluorophenyl)ethyl)amino)-8-ethoxy-6-(1-(fluoromethyl)cyclopropyl)-2-methylpyrido[4,3-d]pyrimidine-7(6H)-one [Example 10]”, 0.0416 µM corresponded to half-maximal inhibition (IC50).

Staying with this test, now noted: Homo sapiens, NCI-H358, 168 h, 7 days.
Regarding `COc1c(=O)n(C2(CF)CC2)cc2c(N[C@H](C)c3cccc(C#N)c3C)nc(C)nc12` [Example 3, (R)-3-(1-((6-(1-(fluoromethyl)cyclopropyl)-8-methoxy-2-methyl-7-oxo-6,7-dihydropyrido[4,3-d]pyrimidin-4-yl)amino)ethyl)-2-methylbenzonitrile], half-maximal inhibition (IC50) required 0.0614 µM.

As to `COc1c(=O)n(C2(C)CCN(C(C)=O)C2)cc2c(N[C@H](C)c3cccc(C(F)F)c3F)nc(C)nc12` (stereo partly drawn) [Example 7, 6-(1-acetyl-3-methylpyrrolidin-3-yl)-4-(((R)-1-(3-(difluoromethyl)-2-fluorophenyl)ethyl)amino)-8-methoxy-2-methylpyrido[4,3-d]pyrimidine-7(6H)-one], 0.0747 µM corresponded to half-maximal inhibition (IC50).

As to `Cc1nc(N[C@H](C)c2cccc(C(F)F)c2F)c2cn(C3(CF)CC3)c(=O)c(OCC3CC3)c2n1` [Example 35, (R)-8-(cyclopropylmethoxy)-4-((1-(3-(difluoromethyl)-2-fluorophenyl)ethyl)amino)-6-(1-(fluoromethyl)cyclopropyl)-2-methylpyrido[4,3-d]pyrimidine-7(6H)-one], half-maximal inhibition (IC50) was put at 0.154 µM.

As for `Cc1nc(N[C@H](C)c2cccc(C(F)F)c2F)c2cn(C3(CF)CC3)c(=O)c(N)c2n1` [Example 59, (R)-8-amino-4-((1-(3-(difluoromethyl)-2-fluorophenyl)ethyl)amino)-6-(1-(fluoromethyl)cyclopropyl)-2-methylpyrido[4,3-d]pyrimidine-7(6H)-one], the midpoint of inhibition, the IC50, lay at 0.162 µM.

Take `Cc1nc(N[C@H](C)c2cccc(C(F)F)c2F)c2cn(C3(CF)CC3)c(=O)c(Oc3cnn(C)c3)c2n1` [Example 60, (R)-4-((1-(3-(difluoromethyl)-2-fluorophenyl)ethyl)amino)-6-(1-(fluoromethyl)cyclopropyl)-2-methyl-8-((1-methyl-1H-pyrazol-4-yl)oxy)pyrido[4,3-d)pyrimidine-7(6H)-one]: half-maximal inhibition (IC50) was put at 0.162 µM.

For `Cc1nc(N[C@H](C)c2cccc(C#N)c2C)c2cn(N3CCOCC3)c(=O)c(-c3ccc(C#N)nc3)c2n1` [Example 64, (R)-5-(4-((1-(3-cyano-2-methylphenyl)ethyl)amino)-2-methyl-6-morpholine-7-oxo-6,7-dihydropyrido[4,3-d]pyrimidin-8-yl)pyridinecarbonitrile], the IC50 (usually the concentration that gives 50% inhibition) was 0.0407 µM.

In turn, `Cc1nc(N[C@H](C)c2cccc(C#N)c2C)c2cn(C3(CF)CC3)c(=O)c(-c3ccc(C#N)nc3)c2n1` [Example 67, (R)-5-(4-((1-(3-cyano-2-methylphenyl)ethyl)amino)-6-(1-(fluoromethyl)cyclopropyl)-2-methyl-7-oxo-6,7-dihydropyrido[4,3-d]pyrimidin-8-yl)pyridinecarbonitrile] gave an IC50 of 0.118 µM.

Regarding `Cc1nc(N[C@H](C)c2cccc(C#N)c2C)c2cn(C3(CF)CC3)c(=O)c(N3CCN(C)CC3)c2n1` [Example 74, (R)-3-(1-((6-(1-(fluoromethyl)cyclopropyl)-2-methyl-8-(4-methylpiperazin-1-yl)-7-oxo-6,7-dihydropyrido[4,3-d]pyrimidin-4-yl)amino)ethyl)-2-methylbenzonitrile], half-maximal inhibition (IC50) was put at 0.0847 µM.

For `Cc1nc(N[C@H](C)c2cccc(C(F)F)c2F)c2cn(C3(CF)CC3)c(=O)c(OC(=O)N3CCN(C)CC3)c2n1` [Example 86, (R)-4-((1-(3-(difluoromethyl)-2-fluorophenyl)ethyl)amino)-6-(1-(fluoromethyl)cyclopropyl)-2-methyl-7-oxo-6,7-dihydropyrido[4,3-d]pyrimidin-8-yl-4-methylpiperazine-1-carboxylate], the IC50 was determined as 0.121 µM. The IC50 values of the last two molecules are within 1.5-fold of each other.

As for `Cc1nc(N[C@H](C)c2cccc(C#N)c2C)c2cn(N3CCOCC3)c(=O)c(-c3ccc(N4CCCC4)nc3)c2n1` [Example 89, (R)-2-methyl-3-(1-((2-methyl-6-morpholinyl-7-oxo-8-(6-(pyrrolidin-1-yl)pyridin-3-yl)-6,7-dihydropyrido[4,3-d]pyrimidin-4-yl)amino)ethyl)benzonitrile], the concentration for half-maximal inhibition (IC50) came out at 0.134 µM.

In the case of `Cc1nc(N[C@H](C)c2cccc(C(F)F)c2F)c2cn(N3CCOCC3)c(=O)c(Oc3ccnc(C#N)c3)c2n1` [Example 118, (R)-4-((4-((1-(3-(difluoromethyl)-2-fluorophenyl)ethyl)amino)-2-methyl-6-morpholino-7-oxo-6,7-dihydropyrido[4,3-d]pyrimidin-8-yl)oxy)pyridinecarbonitrile], the IC50 was 0.136 µM.

Molecule `Cc1nc(N[C@H](C)c2cccc(C(F)F)c2F)c2cn(C3(CF)CC3)c(=O)c(N3CCN(C4COC4)CC34CC4)c2n1` [Example 146, (R)-4-((1-(3-(difluoromethyl)-2-fluorophenyl)ethyl)amino)-6-(1-(fluoromethyl)cyclopropyl)-2-methyl-8-(7-(oxetan-3-yl)-4,7-diazaspiro [2.5]octan-4-yl)pyrido [4,3-d]pyrimidine-7(6H)-one] registered an IC50 of 0.0699 µM.

`Cc1nc(N[C@H](C)c2cccc(C(F)F)c2F)c2cn(C3(CF)CC3)c(=O)c(N3CCC4(COC4)C3)c2n1` [Example 154] came in with an IC50 of 0.117 µM. This IC50 is about 1.7-fold higher than that of the molecule before.

Molecule `Cc1nc(N[C@H](C)c2cccc(C(F)F)c2F)c2cn(C3(CF)CC3)c(=O)c(NC(=O)c3ccccn3)c2n1` [Example 157] came in with an IC50 of 0.0848 µM.

Another test has as its system p-ERK pathway in H358 cells. Put plainly: p-ERK pathway inhibition in H358 cells (Advanced phospho-ERK (Thr202/Tyr204) cellular kit, HTRF). It counts as cell-based. To be noted: Homo sapiens, NCI-H358, 1 h compound incubation. Here is the method:
The effect of the compounds of the present invention on H358 cell p-ERK pathway was assessed by Advanced phospho-ERK (Thr202/Tyr204) cellular kit method.
The experimental procedures were summarized as follows: H358 cells (ATCC, CRL-5807) were cultured in RPMI1640 (ThermoFisher, A1049101) complete medium containing 10% FBS (Gibco, 10100147) and 100 U/mL penicillin-streptomycin mixed solution (Gibco, 15140163). When the coverage of the cells in the culture vessel reached 80-90%, the cells were pipetted and seeded in a 96-well plate (Corning, 3599) at 50000 cells/well (90 µL RPMI1640 complete medium), and the plate was left to stand for 5 min, cultured in an incubator at 37 °C with 5% CO2 for 6 h, replaced with a serum-free RPMI1640, and starved overnight.
After incubation overnight, 10 µL of a diluted test compound was added to each well using a multi-channel pipette, and the 96-well plate was cultured in an incubator at 37 °C with 5% CO2 for 1 h. The supernatant was poured. The cells were washed once with PBS. 50 µL of a lysis buffer (Advanced phospho-ERK (Thr202/Tyr204) cellular kit, 64AERPEH) was added to each well. The plate was shaken at room temperature at 450 rpm for 1 h. After the cells were completely lysed, 16 µL of the supernatant was added to a 384-well plate (PE, 6007299), mixed energy donor Eu and energy acceptor D2 (D2/Eu = 1:1) were added, and the plate was incubated at room temperature for 4 h. HTRF on the microplate reader was selected for plate reading, Ratio = Signal 665 nm/Signal 620 nm × 10^4. In this experiment, the cell-free group (replaced with 1640 medium) was used as the 100% inhibition group, and the compound-free group in which the cell was added was used as the 0% inhibition group.
The inhibition percentage of H358 cell p-ERK pathway by the compounds of the present invention could be calculated by the following formula: [formula]
as §1
Y is the inhibition percentage, X is the logarithmic value of the concentration of the test compound, Bottom is the minimum inhibition percentage, Top is the maximum inhibition percentage, and slope factor is the slope coefficient of the curve. The default fitted curve was used to fit the slope of the S-shaped curve to determine the IC50 value. Table 2. Results of p-ERK inhibition test by the compounds of the present invention
In turn, `Cc1nc(N[C@H](C)c2cccc(C(F)F)c2F)c2cn(C3(CF)CC3)c(=O)c(N3CCN(CC#N)CC3)c2n1` [Example 134, (R)-2-(4-(4-((1-(3-(difluoromethyl)-2-fluorophenyl)ethyl)amino)-6-(1-(fluoromethyl)cyclopropyl)-2-methyl-7-oxo-6,7-dihydropyrido[4,3-d]pyrimidin-8-yl)piperazin-1-yl)acetonitrile] gave an IC50 of 0.0491 µM.

`COC1(c2c(=O)n(C3(CF)CC3)cc3c(N[C@H](C)c4cccc(C(F)F)c4F)nc(C)nc23)CCOC1` (stereo partly drawn) [Example 140, 4-(((R)-1-(3-(difluoromethyl)-2-fluorophenyl)ethyl)amino)-6-(1-(fluoromethyl)cyclopropyl)-8-(3-methoxytetrahydrofuran-3-yl)-2-methylpyrido[4,3-d]pyrimidine-7(6H)-one] showed an IC50 of 0.131 µM.

`Cc1nc(N[C@H](C)c2cccc(C#N)c2C)c2cn(N3CCOCC3)c(=O)c(-c3ccnc(N4CCOCC4)c3)c2n1` [Example 163] displayed an IC50 of 0.0439 µM.

`Cc1nc(N[C@H](C)c2cccc(C(F)F)c2F)c2cn(C3(CF)CC3)c(=O)c(N3CCC(F)(F)CC3)c2n1` [Example 169] yielded an IC50 of 0.121 µM.

For the molecule `Cc1nc(N[C@H](C)c2cccc(C(F)F)c2F)c2cn(C3(CF)CC3)c(=O)c(-c3cnn4c3CCC4)c2n1` [Example 170], half-maximal inhibition (IC50) was put at 0.138 µM.

`Cc1nc(N[C@H](C)c2cccc(C(F)F)c2F)c2cn(C3(CF)CC3)c(=O)c(N3CCOCC3=O)c2n1` [Example 172, (R)-4-(4-((1-(3-(difluoromethyl)-2-fluorophenyl)ethyl)amino)-6-(1-(fluoromethyl)cyclopropyl)-2-methyl-7-oxo-6,7-dihydropyrido[4,3-d]pyrimidin-8-yl)morpholine-3-one] registered an IC50 of 0.167 µM. The IC50 values of the last two molecules are within 1.5-fold of each other.

Molecule `Cc1nc(N[C@H](C)c2cccc(C(F)F)c2F)c2cn(C3(CF)CC3)c(=O)c(N3CCC(C)(C#N)CC3)c2n1` [Example 173] gave an IC50 of 0.0983 µM.
